Laboratory results as given in patent US5420335A, “Parenteral nutrients based on watersoluble glycerol bisacetoacetates” (priority 1993, dated 1995).
“Also recorded” adds a separate entry of the source. Like-named read-outs stand apart in the source and are kept apart here.

Assays:
[1] = in words, prior art; cited from earlier work
[2] = in words; cited from earlier work
[3] = Water solubility; conditions: in words

Compound: CC(=O)CC(=O)OCC(O)CO (stereo not drawn) [monoacetoacetin, monoacetoacetylglycerol]
- water solubility [1]: water soluble
- metabolized in vivo [2]: metabolized in vivo

Compound: CC(=O)CC(=O)OCC(COC(=O)CC(C)=O)OC(=O)CC(C)=O [trisacetoacetyl glycerol, trisacetoacetylglycerol]
- water solubility [3]: rendered water soluble when in the presence of a glycerol bisacetoacetate; also recorded: insoluble by itself in water; also recorded: surprisingly solubilized in water when in the presence of 1,2- and 1,3-bisacetoacetyl glycerol
